Results as given in patent US9604987B2, “Synthesis of autophagy inducing compound and the uses thereof” (Hong Kong Baptist University, priority 2012, dated 2017).

Columns and labels:
[1] = test system: rat primary cortical neurons; assay: LC3 immunoblot in primary cultured rat cortical neurons; assay type: cell-based; details: different concentrations, 24 hours
Protocol: To further confirm the pro-autophagic effect of CB6 and CB8 on primary neurons, rat primary cortical neurons isolated from E17 rats are used in the study. The primary neurons are treated with different concentrations of CB6 and CB8 respectively for 24 hours, and autophagic markers LC3 is detected by immunoblot analysis.
The E16 pregnant rat was anesthetized by intraperitoneal injection with 3% chloral hydrate in normal saline (1 ml/100 g bdw). The uterus containing embryos were dissected and transferred to a Petri dish, and then the embryos were collected on a new petri dish containing ice cold PBS. The brains of the embryos were then dissected under stereoscope and the cortices of the brains were placed in a Petri dish containing ice cold 10% FBS DMEM. The meninges of the cortices were removed carefully and then transferred to a 15 ml tube. Total 5 ml of digestion solution (1.25% Trypsin diluted with DMEM/F12 medium) were added into the tube containing meninges-free cortices and then incubated at 37° C. for 15 min. The digestion was stopped by adding 10% FBS DMEM/F12 supplemented with 10 μg/ml DNase (Sigma, DN25). […] The viable cells without staining with typan blue were then counted under microscope. […]

[2] = test system: Drosophila fat body; assay: Atg8a-EGFP puncta in Drosophila fat body (confocal); assay type: in vivo; details: L3 larvae, 100 μM, 6 hours
Protocol: To further test whether CB6 and CB8 could induce autophagy in vivo, Drosolphila expressing Atg8a-GFP (Atg8a, Drosophila homologue of LC3) are obtained by crossing Cg-GAL4, a GAL4 line drives transgene expression in fat body, with UAS-Atg8a-EGFP. Crossed flies are allowed to lay eggs for 1 hour, 90 hours later, the L3 larvae are collected and treated with 100 μM of Cory B, CB6 and CB8 for 6 hours respectively. After treatment, the fat body lobes of the larvae are harvested with fine forceps and fixed with 4% PFA in PBS at room temperature for 15 minutes. Fat body lobes are then washed with PBS three times and subsequently mounted with VECTASHIELD hardset anti-fade mounting medium. The slides are then subjected to confocal microscopy analysis.
Crossed flies were allowed to lay eggs for 1 hr, 90 hrs later, the L3 larvae were collected for further treatment. The compounds were firstly dissolved in DMSO and then diluted to the desired concentration with ddH2O and then mixed thoroughly with instant fly food. The L3 larvae were placed in the prepared food and received treatment for 6 hrs. After treatment, the fat body lobes of the larvae were harvested with fine forceps and fixed with 4% PFA in PBS at room temperature for 15 min. Fat body lobes were then washed with PBS three times and subsequently mounted with VECTASHIELD hardset antifade mounting medium. […]

[3] = test system: N2a GFP-LC3 cells; assay: GFP-LC3 puncta formation in N2a cells constantly expressing GFP-LC3 (confocal); assay type: cell-based, mouse; details: for pro-autophagic activity (GFP-LC3 puncta): 50 μM, 12 hours
Protocol: Cell imaging and puncta counting. Cells were fixed in 3.7% paraformaldehyde (158127, Sigma) for 10 minutes and mounted with FluorSave reagent. Cell images were recorded using a fluorescence microscope or confocal microscope. GFP or RFP Puncta number were counted in cells as described previously. Briefly, the GFP-LC3 or RFP-LC3 puncta in each cell were manually counted, and at least 50 cells were randomly selected for counting in each group. The data presented were from one representative experiment of at least 3 independent experiments.
Further, a neuroblastoma cell line N2a constantly expressing GFP-LC3 (a standard autophagy marker protein) is established. The formation of GFP-LC3 puncta under Cory B treatment is observed under a confocal microscope. Data is presented as the mean±SEM of one representative experiment from three independent experiments. (*p<0.05, ***p<0.001, one-way ANOVA for multiple comparison and Tukey's test as post hoc test).
To confirm that enhancement of autophagy markers by Cory B is due to induction of autophagy rather than blockage of autophagosome maturation, N2a cells are treated with 25 μM Cory B or 30 μM lysosome inhibitor CQ together with Cory B for 12 hours. Cell lysates are subject to western blot analysis. Data are presented as the mean±SEM from 3 independent experiments (***p<0.001, one-way ANOVA for multiple comparison and Tukey's test as post hoc test). Both LC3-II levels and the number of GFP-LC3 puncta in the Cory B and CQ co-treatment group are much higher than in the CQ-alone treatment group (FIG. 2A-D). Meanwhile, Cory B induces GFP-LC3 puncta formation is abolished by treatment of 5 mM autophagy inhibitor 3-MA for 24 hours (FIG. 2C, D). Cells were fixed in 4% paraformaldehyde and analyzed under a confocal microscope. Data are presented as the mean±SEM of one representative experiment from three independent experiments. (***p<0.001, one-way ANOVA for multiple comparison and Tukey's test as post hoc test). […] Thus, Cory B is indeed an autophagy inducer in neuronal cells.
In order to observe the pro-autophagic activity of CB6 and CB8 intuitively, N2a cells constantly expressing GFP-LC3 are treated with 50 μM Cory B, CB6 and CB8 for 12 hours respectively. The cells are than fixed with 4% paraformaldehyde (Sigma, 158127) for 10 minutes, and then mounted with VECTASHIELD hardset anti-fade mounting medium. The mounted samples are then subjected to confocal microscopy analysis.
After designated treatments, N2a cells constantly expressing GFP-LC3 were fixed with 4% paraformaldehyde (Sigma, 158127) for 10 min, and then mounted with VECTASHIELD hardset antifade mounting medium. The mounted samples were then subjected to confocal microscopy analysis.

[4] = test system: N2a Swedish APP cells; assay: APP reduction in N2a Swedish APP cells (western blot); assay type: cell-based, mouse; details: different concentrations, with or without CQ and 3MA
Protocol: N2a Swedish APP cells are incubated with different concentration of Cory and Cory B in the presence or absence of CQ and 3MA. […] Tg2567 APP mice, 3 months old JNPL P301 Tau mice and WT mice intraperitoneally are administrated with 20 mg/kg/d CoryB.

SMILES | autophagy (LC3 immunoblot) [1] | autophagy in vivo (Atg8a-EGFP puncta) [2] | pro-autophagic activity (GFP-LC3 puncta) [3] | full length and CTF APP [4] | GFP-LC3 puncta formation in presence of autophagy inhibitor 3-MA ([3]; 5 mM 3-MA, 24 hours) | GFP-LC3 puncta formation ([3]; N2a GFP-LC3 cells, Cory B treatment)
CCCN1C(=O)[C@]2(CCN3C[C@@H](CC)[C@@H](/C(=C\OC)C(=O)OC)C[C@H]32)c2ccccc21 [CB6] | induced autophagy | able to induce autophagy | confirmed to be autophagy inducers |  |  | 
C=CCN1C(=O)[C@]2(CCN3C[C@@H](CC)[C@@H](/C(=C\OC)C(=O)OC)C[C@H]32)c2ccccc21 [CB8] | induced autophagy | able to induce autophagy | confirmed to be autophagy inducers |  |  | 
CC[C@@H]1CN2CC[C@]3(C(=O)Nc4ccccc43)C2C[C@@H]1C(=COC)C(=O)OC (stereo partly drawn) [Cory B, Corynoxine B] |  |  |  | dose-dependently reduce both full length and CTF APP | abolished | induces massive GFP-LC3 puncta formation
